15 compounds from ChEMBL document CHEMBL1124679, “A novel lead for specific anti-HIV-1 agents: 1-[(2-hydroxyethoxy)methyl]-6-(phenylthio)thymine” (J Med Chem, 1989) can be followed below.

Experiment [1] relates to MT4. As to the kind of experiment: Concentration required to achieve 50% protection of MT-4 cells against cytopathic effect of HIV-1. In kind it is functional, cell-based. The following applies: Homo sapiens. A general note: Cytopathic effects are the visible damage that an infection or toxin causes in cultured cells.
Experiment [2] concerns MT4. Description: Cytotoxic concentration of compound required to reduce the viability of mock-infected MT-4 cells by 50%. In kind it is functional. The following applies: Homo sapiens.
A short description of experiment [3]: Selectivity index is the ratio of CC50/EC50. Type of experiment: functional.
Experiment [4] concerns the target T1, Human immunodeficiency virus type 1 reverse transcriptase (Human immunodeficiency virus 1, UniProt Q72547). Description: Inhibitory effect on HIV-1 reverse transcriptase activity using poly(rA)-oligo(dT) template primer.
The target in experiment [5] is T1, Human immunodeficiency virus type 1 reverse transcriptase. As to the kind of experiment: Inhibitory effect on HIV-1 reverse transcriptase activity using poly(rC)-oligo(dG) template primer.

SMILES strings stand for the structures. pEC50, pIC50: −log10 of the molar value. Bounds are passed on as bounds.

Usually pEC50 stands for −log10 of the EC50, conventionally taken in molar units. High values mean a low EC50, low ones a high EC50. For orientation: CC50 means the concentration giving 50% cytotoxicity. High values mean better tolerance by the cells, low ones harm at low concentration. For `O=c1[nH]c(=O)n(COCCO)c(Sc2ccccc2)c1Br`, in the experiment with MT4 [1], the pEC50 is below 4.70. The compound also yielded a CC50 in the experiment with MT4 [2] of 44 µM. Also, the SI in experiment [3] is below 2.2.
In the case of `Cc1c(I)n(COCCO)c(=O)[nH]c1=O`, in the experiment with MT4 [1], the pEC50 is below 4.10. Further, the CC50 in the experiment with MT4 [2] worked out at 400 µM. Further, the SI in experiment [3] was below 5.
By pIC50 is commonly meant −log10 of the IC50, conventionally taken in molar units. Low readings indicate a large IC50, high ones a small IC50. With `Cc1c(Sc2ccccc2)n(COCCOP(=O)(O)P(=O)(O)P(=O)(O)O)c(=O)[nH]c1=O`, the pIC50 in experiment [4] is 3.55; in experiment [5] it was 3.30.
Compound `O=c1[nH]c(=O)n(COCCO)c(Sc2ccccc2)c1Cl` gave a pEC50 with MT4 [1] below 4.52. The midpoint of cytotoxicity in the experiment with MT4 [2], the CC50, lay at 100 µM. The SI in experiment [3] was below 3.4.
In the experiment with MT4 [1], `O=c1[nH]c(=O)n(COCCO)c(I)c1Br` showed a pEC50 below 5.30. Also, the midpoint of cytotoxicity in the experiment with MT4 [2], the CC50, lay at 11.5 µM. The SI in experiment [3] was below 2.3.
Taken in the same sequence, the figures for `Nc1ncnc2c1ncn2[C@H]1CC[C@@H](CO)O1` were 5.20, 890 µM and 141.
In the experiment with MT4 [1], `O=c1[nH]c(=O)n(COCCO)c(Sc2ccccc2)c1F` had a pEC50 below 4.00. The CC50 with MT4 [2] was 288 µM. Moreover, the SI in experiment [3] is below 2.9.
In the experiment with MT4 [1], `O=c1[nH]c(=O)n(COCCO)c(I)c1Cl` gave a pEC50 below 5.22. The CC50 in the experiment on MT4 [2] came out at 13 µM. In addition, the SI in experiment [3] was below 2.2.
On to `Nc1ccn([C@H]2CC[C@@H](CO)O2)c(=O)n1` [ZALCITABINE], for which the pEC50 with MT4 [1] was 6.52. This compound also gave a CC50 in the experiment with MT4 [2] of 40 µM. Besides, the SI in experiment [3] turned out to be 133.
`O=c1cc(Sc2ccccc2)n(COCCO)c(=O)[nH]1` gave a pEC50 in the experiment on MT4 [1] below 3.30. The compound also gave a CC50 with MT4 [2] of 1850 µM. For the same compound, the SI in experiment [3] was below 3.7.
In the experiment on MT4 [1], `O=c1[nH]c(=O)n(COCCO)c(I)c1F` had a pEC50 below 4.82. Moreover, the CC50 with MT4 [2] turned out to be 32 µM. Also, the SI in experiment [3] is below 2.1.
As to `O=c1cc(I)n(COCCO)c(=O)[nH]1`, the pEC50 in the experiment on MT4 [1] was below 4.52. This compound also came in with a CC50 in the experiment on MT4 [2] of 75 µM. Moreover, in experiment [3], the SI was below 2.5.
In turn, `Cc1cn(C2CC(N=[N+]=[N-])C(COP(=O)(O)P(=O)(O)P(=O)(O)O)O2)c(=O)[nH]c1=O` (stereo not drawn) gave a pIC50 in experiment [4] of 7.47.
Consider `Cc1cn([C@H]2C[C@H](N=[N+]=[N-])[C@@H](CO)O2)c(=O)[nH]c1=O` [ZIDOVUDINE], for which the pEC50 with MT4 [1] was 7.80. Moreover, in the experiment with MT4 [2], the CC50 was 20 µM. For the same compound, in experiment [3], the SI came to 1250.
Consider `Cc1c(Sc2ccccc2)n(COCCO)c(=O)[nH]c1=O` [HEPT], for which the pEC50 in the experiment on MT4 [1] is 5.15. Also, it took 740 µM to reach half-maximal cytotoxicity in the experiment with MT4 [2] (CC50). The values for the pIC50 in experiment [4] and in experiment [5] were below 3.30 and 3.82, respectively.
